In patent US20250177329A1, “GPR120 AGONISTS FOR THE TREATMENT OF INFLAMMATORY BOWEL DISEASE” (Dompe' Farmaceutici SPA, priority 2022, published 2025):

Experiments:
[1] = Plasma pharmacokinetics after single oral administration to mice; format: in vivo; details: male, CD1, mouse, single oral dose (Dose_PO: 10.0-90.0 mg/kg)
Excerpt: The purpose of this study was to evaluate plasma and tissue exposure of the following compounds after a single oral administration to mice: • 7-(3-(N-(4-fluoro-2,6-dimethylphenyl)sulfamoyl)phenyl)heptanoic acid (indicated below as DFL23806), • 7-(3-(N-(4-chloro-2,6-dimethylphenyl)sulfamoyl)phenyl)heptanoic acid (indicated below as DFL23914) • 7-(3-(N-(2,6-dimethyl-4-(trifluoromethyl)phenyl)sulfamoyl)phenyl)heptanoic acid (indicated below as DFL23922) • 7-(3-(N-(6-fluoro-4-methyl-[1,1′-biphenyl]-3-yl)sulfamoyl)phenyl)heptanoic acid (indicated below as DFL23916) • 7-(3-(N-(5-fluoro-3-methyl-[1,1′-biphenyl]-2-yl)sulfamoyl)phenyl)heptanoic acid (indicated below as DFL23917) • 7-(3-{[4-fluoro-2-methyl-5-(thiophen-2-yl)phenyl]sulfamoyl}phenyl)heptanoic acid (indicated below as DFL24102) […]
A retro-orbital, composite blood sampling at pre-dose or after dosing at 30 min, 1, 2, 6, 8 and 24 hours (three mice/time point) was carried out for the plasma pharmacokinetic assessment. Blood samples were collected in heparinized collection tubes. Samples were taken immediately onto ice and kept cool until centrifugation (10000 g for 3 minutes at about +4° C.). About 50 μL of plasma were stored in a freezer at −80° C. pending analysis.
After samples collection, bioanalysis for concentrations of the test compounds were done using HPLC-MS/MS methods and pharmacokinetic analysis of the compounds in plasma and tissues was performed according to standard non-compartmental approach using Watson system (v 7.6, Thermo Fisher Scientific Waltham, MA, USA) on mean concentration data.

DSS-induced colitis = experiment: Mouse model of Dextran Sodium Sulfate-induced colitis; format: in vivo, female C57/B16 mice; details: day 39
Excerpt: A mouse model of colitis induced by administration of Dextran Sodium Sulfate (DSS) (Wirtz S. et al. Nature Protocols; Volume: 2, Issue: 3 Pages: 541-546; 2007) was used to study the therapeutic effect of oral administration of DFL23806 on colitis.
In details, 8- to 12-week-old female C57/B16 mice were subjected to 3 oral cycles of 2.5% Dextran Sodium Sulfate (DSS) in drinking water (molecular mass, 40 kDa; MP Biomedicals), each cycle characterized by 7 days of DSS administration followed by 7 days of filter-purified water.
From day 3 of DSS administration, the mice were divided in 4 experimental groups, each receiving the treatment specified below: • Group 1: DSS (n=8)
No treatment, used as negative control. • Group 2: DSS+Vehicle (n=8)
Treated with 20% v/v Dimethyl Sulfoxide (DMSO) and 80% v/v Phosphate Buffered Saline (PBS), 0.1 M, pH 8 (Vehicle), used as a negative control. • Group 3: DSS+DFL 90 mg/kg (n=8)
Treated with DFL23806 dissolved in Vehicle, at the dosage of 90 mg/kg once a day. • Group 4: DSS+5-ASA 60 mg/kg (n=8)
Treated with 5-aminosalicylic acid (5-ASA) in Vehicle, at the dosage of 60 mg/Kg once a day, used as reference positive control.
Vehicle, DFL23806 and 5-ASA were administered daily, in the morning, by oral gavage, using plastic sterile feeding tubes 20 ga×30 mm. All mice were sacrificed on day 39.
A DAI score was established based on a scale that considers different parameters characterizing experimental colitis induction and progression (R S Walmsley et al. Gut 1998; 43:29-32).
Body weight, presence of gross blood in the feces, and stool consistency were recorded every 2 days. In details, the DAI was determined at each time point by scoring changes in weight loss (0=none, 1=1%-5%, 2=5%-10%, 3=10%-20%, 4=>20%); stool consistency (0=normal, 2=loose, 4=diarrhea); and rectal bleeding (0=normal, 2=occult bleeding, 4=gross bleeding).
Mice were sacrificed at day 39, colon were collected and colon lengths measured for each mouse, as additional parameter of intestinal inflammation.
The day of sacrifice (day 39), mice were anesthetized with 2% isoflurane and subjected to endoscopy, to confirm the inflammatory grade. The experimental endoscopy setup, denoted “Coloview system”, consisted of a miniature endoscope (scope 1.9 mm outer diameter), a xenon light source, a triple chip camera, and an air pump (all from Karl Storz, Tuttlingen, Germany) to achieve regulated inflation of the mouse colon. The endoscopic procedure was viewed on a colour monitor and a modified murine endoscopic index score of colitis severity was assigned on the basis of colon translucency (0-3 points), granular features of the mucosa (0-3 points), morphology of the vascular pattern (0-4 points), and the presence of fibrin (0-4 points), as previously described by Dr. D'Alessio (D'Alessio, S. et al. J. Clin. Invest. 124, 3863-3878; 2014) leading to a cumulative score between 0 (no signs of inflammation) and […] (endoscopic signs of very severe inflammation).
Histological analysis has been performed by an expert pathologist, in a blinded fashion, to grade the intestinal inflammation. More in details, colons of colitic mice in the various experimental groups have been evaluated for histological analyses using […] paraffin-embedded sections, stained with hematoxylin (Dako) and eosin (Diapath). A blinded pathologist evaluated the degree of inflammatory cell infiltration and mucosal damage, using the RACHMILEWITZ score (Table 1) (Rachmilewitz, D. et al. Gastroenterology 122, 1428-1441; 2002).

GPR40 = molecular target: T1, GPR40 (Mus musculus, UniProt Q76JU9); experiment: Co-immunoprecipitation of β-arrestin 2 with GPR40 in colon lysates of DSS mice; format: in vivo; details: pooled colon lysates, day 39; compared to DSS or DSS+vehicle
T1 construct: Colon lysates (˜900 μg proteins) from 6 mice of each experimental group were pooled; from tissue; host or cells: mouse colon (DSS colitis model)
T1 sequence (Q76JU9 whole entry): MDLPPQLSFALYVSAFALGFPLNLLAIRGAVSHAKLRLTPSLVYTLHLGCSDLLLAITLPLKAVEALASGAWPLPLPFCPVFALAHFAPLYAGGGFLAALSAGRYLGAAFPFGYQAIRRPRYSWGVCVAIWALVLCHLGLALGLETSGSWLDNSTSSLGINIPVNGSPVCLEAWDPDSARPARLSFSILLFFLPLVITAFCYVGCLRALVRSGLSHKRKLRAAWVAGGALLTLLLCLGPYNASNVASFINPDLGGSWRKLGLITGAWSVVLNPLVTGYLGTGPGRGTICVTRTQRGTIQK
Method: The efficiency of DFL in activating the GPR120 and/or GPR40 receptors was tested.
Agonist-induced GPR120 can engage multiple signalling pathways to regulate distinct physiological outcomes. After ligand binding, B-arrestins, such as B-arrestin 2 can associate with the cytoplasmic domains of GPR120 and couple the receptor to specific downstream signaling pathways (FIG. 9). For this reason, we verified the agonist efficiency in activating GPR120 and GPR40 by immunoprecipitation. Colon lysates (˜900 μg proteins) from 6 mice of each experimental group were pooled, precleared with protein A/G plus-agarose (Santa Cruz) and then incubated with the antibody used for immunoprecipitation (anti-GPR120 or anti-GPR40, Abcam) at 4° C. for 16 h, followed by incubation with protein A/G plus-agarose for 5 h. The agarose beads were then collected by centrifugation, washed four times with lysis buffer, and heated to 95° C. for 5 min after adding Laemmli buffer. The resulting immunoprecipitates were separated by SDS-PAGE and probed with the anti-β-arrestin 2 antibody (Santa Cruz).
Upon western blotting, a densitometric analysis of the blots was performed using Image J. FIGS. 10 and 11 show the ratio between co-immunoprecipitated β-arrestin 2 and GPR120 (FIG. 10) or GPR40 levels (FIG. 11) and the results of the blotting.

[2] = colon, DFL 90 mg/kg, 5-ASA 60 mg/kg, compared with DSS+Vehicle
[3] = DFL23806 90 mg/kg, 5-ASA 60 mg/kg oral once a day, compared to DSS and DSS+Vehicle

Compound | AUC(0-inf) [1] [ng·h/mL] | AUC(0-t) [1] [ng·h/mL] | Cmax [1] [ng/mL] | Tmax [1] [h] | half-life [1] [h] | GPR40 and β-arrestin 2 association (ratio co-immunoprecipitated β-arrestin 2 / GPR40) (GPR40) | histological score (Rachmilewitz) for extent of flogosis (DSS-induced colitis; [2]) | histological score (Rachmilewitz) for extent of ulceration (DSS-induced colitis; [2]) | histological score (Rachmilewitz) for flogosis (DSS-induced colitis; [2]) | histological score (Rachmilewitz) for ulceration (DSS-induced colitis; [2]) | composite endoscopic score (DSS-induced colitis; [3]) | endoscopic score: colon thickness (DSS-induced colitis; [3]) | endoscopic score: mucosal surface granularity (DSS-induced colitis; [3]) | endoscopic score: vascular pattern (DSS-induced colitis; [3]) | endoscopic score: visible fibrin (DSS-induced colitis; [3]) | colon length (DSS-induced colitis; DFL23806 90 mg/kg, 5-ASA 60 mg/kg oral once a day, compared to DSS+vehicle)
Cc1cc(C(F)(F)F)cc(C)c1NS(=O)(=O)c1cccc(CCCCCCC(=O)O)c1 [DFL23922, 7-(3-(N-(2,6-dimethyl-4-(trifluoromethyl)phenyl)sulfamoyl)phenyl)heptanoic acid] | 217 | 201 | 123 | 1.4 | 1.5 | – | – | – | – | – | – | – | – | – | – | –
Nc1ccc(O)c(C(=O)O)c1 [5-ASA, 5-aminosalicylic acid, reference compound] | – | – | – | – | – | no increase | significantly reduced the histological score | significantly reduced the histological score | significantly reduced the histological score | significantly reduced the histological score | significantly inhibit chronic experimental colitis | significantly inhibit chronic experimental colitis | significantly inhibit chronic experimental colitis | significantly inhibit chronic experimental colitis | significantly inhibit chronic experimental colitis | significant inhibitory effect
Cc1cc(Cl)cc(C)c1NS(=O)(=O)c1cccc(CCCCCCC(=O)O)c1 [DFL23914, 7-(3-(N-(4-chloro-2,6-dimethylphenyl)sulfamoyl)phenyl)heptanoic acid] | 230 | 189 | 45 | 2 | 1.2 | – | – | – | – | – | – | – | – | – | – | –

More lines, main results first:

AUC(0-inf) [1] [ng·h/mL] | AUC(0-t) [1] [ng·h/mL] | Cmax [1] [ng/mL] | Tmax [1] [h] | half-life [1] [h] | GPR40 and β-arrestin 2 association (ratio co-immunoprecipitated β-arrestin 2 / GPR40) (GPR40) | Compound | histological score (Rachmilewitz) for extent of flogosis (DSS-induced colitis; [2]) | histological score (Rachmilewitz) for extent of ulceration (DSS-induced colitis; [2]) | histological score (Rachmilewitz) for flogosis (DSS-induced colitis; [2]) | histological score (Rachmilewitz) for ulceration (DSS-induced colitis; [2]) | composite endoscopic score (DSS-induced colitis; [3]) | endoscopic score: colon thickness (DSS-induced colitis; [3]) | endoscopic score: mucosal surface granularity (DSS-induced colitis; [3]) | endoscopic score: vascular pattern (DSS-induced colitis; [3]) | endoscopic score: visible fibrin (DSS-induced colitis; [3]) | colon length (DSS-induced colitis; DFL23806 90 mg/kg, 5-ASA 60 mg/kg oral once a day, compared to DSS+vehicle)
402 | 378 | 135 | 0.5 | 1.3 | – | Cc1cc(F)cc(-c2ccccc2)c1NS(=O)(=O)c1cccc(CCCCCCC(=O)O)c1 [DFL23917, 7-(3-(N-(5-fluoro-3-methyl-[1,1′-biphenyl]-2-yl)sulfamoyl)phenyl)heptanoic acid] | – | – | – | – | – | – | – | – | – | –
302 | 278 | 113 | 1 | 1.9 | – | Cc1cc(F)c(-c2cccs2)cc1NS(=O)(=O)c1cccc(CCCCCCC(=O)O)c1 [DFL24102, 7-(3-{[4-fluoro-2-methyl-5-(thiophen-2-yl)phenyl]sulfamoyl}phenyl)heptanoic acid] | – | – | – | – | – | – | – | – | – | –
571 | 480 | 198 | 0.4 | 2.2 | – | Cc1cc(F)c(-c2ccccc2)cc1NS(=O)(=O)c1cccc(CCCCCCC(=O)O)c1 [DFL23916, 7-(3-(N-(6-fluoro-4-methyl-[1,1′-biphenyl]-3-yl)sulfamoyl)phenyl)heptanoic acid] | – | – | – | – | – | – | – | – | – | –
